Data: US20100048644A1 (BEIJING HUAANFO BIOMEDICAL RESEARCH CENTRE INC., priority 2006, published 2010)
Several values for one entry are separate records, joined by “and”; a condition that tells them apart may be missing. Equal entries are not always repeated.

How the values were obtained:
rats with BPH = test: Urodynamic parameters and urine volumes in castrated, testosterone propionate-treated SD rats with BPH; assay type: in vivo, rat (male SD)
Method: Afterwards, the bilateral testicles of the rats were resected under an aseptic condition. Then the rats received an intramuscular injection of penicillin at 20000 U/kg/d for 3 days, and 1 week later a subcutaneous injection of testosterone propionate (dissolved in olive oil) at 0.5 mg/pec, once daily for 21 consecutive days.
(§1) In the treatment groups, the rats were orally administered by infusion at 1 ml/100 g body weight once daily for 14 consecutive days after 7-day injection with testosterone propionate. In the blank and model groups, the rats were orally perfused with isovolumetric physiological saline.
(§2) The rats were anaesthetized by a peritoneal injection of 20% ethyl carbamate at a dose of 1000 mg/kg. The rat bladder was exposed by cutting a longitudinal incision on the upper of pubic arch. Piercing the top of bladder made a little hole, where a catheter with cannulas was inserted. The outside cannula (Φ 1.2 mm) with a pressreceptor was linked to PC-Lab multi-lead physiological recording system. The inside cannula (Φ 0.61 mm) was connected to an injection pump with constant infusion speed (2 ml/h). After last administration, the urodynamic parameters, single urine volume, and residual urine volume in rats were respectively collected.
(§3) Data were presented as mean±SD. One way-ANOVA was employed for group comparison.

[1] = test system: patients with low urinary tract syndrome (LUTS) and mild to moderate hypertension; test: Clinical study, Amlodipine 5 mg vs Terazosin 2 mg for 4 weeks: IPSS, urinary flow rate, blood pressure; assay type: in vivo, human; parameters: key to BOO (obstructive symptoms score) / OAB (irritative symptoms score): IPSS sub-scores in points (symptom items of IPSS); settings: for Percentage of improvement at Week 4: BOO / Percentage of improvement at Week 4: DBP / Percentage of improvement at Week 4: IPSS / Percentage of improvement at Week 4: OAB / Percentage of improvement at Week 4: Qave / Percentage of improvement at Week 4: Qmax / Percentage of improvement at Week 4: SBP: Week 4 vs Week 0
Source text: 1) Male, 50-75 years old. […] 3) International Prostate Symptom Score (IPSS)≧8 points
Storage, reservation and delivery of drugs were in accordance with Standard Operation Procedure (SOP).
Obstructive symptoms score includes hesitancy of micturition, reduced or interrupted urinary stream and sensation of incomplete bladder emptying, which mainly reflect BOO. Irritative symptoms score refers to urinary urgency and frequency, and an increase in night micturition, reflecting OAB symptoms. In this study, a total score of IPSS is considered as primary index. Sub-scores on BOO and OAB were also considered.
All data, doubly entered using Epi-info 3.0 and presented as mean±standard deviation (SD), were analyzed using SAS 8.0. A paired t-test was employed to compare pre- and post-treatment scores, and a multiple regression analysis was further performed to adjust for important covariates. Difference was considered significant at P<0.05.

[2] = test system: spontaneous hypertensive rats (SHR) with prostate hyperplasia; test: Urodynamic parameters and urine volumes in spontaneous hypertensive rats (SHR) with prostate hyperplasia; assay type: in vivo, rat (SHR); settings: Amlodipine 0.5 mg/kg (A3) oral once daily 14 days
Method: as §1, §2, §3

[3] = Amlodipine 0.25 mg/kg (A1) oral once daily 14 days
[4] = Amlodipine 0.5 mg/kg (A2) oral once daily 14 days
[5] = Week 0 (before treatment), groups Amlodipine 5 mg (N=90), Terazosin 2 mg (N=62)
[6] = Week 4, Amlodipine 5 mg or Terazosin 2 mg oral for 4 consecutive weeks
[7] = Amlodipine 5 mg or Terazosin 2 mg oral for 4 weeks
[8] = multiple regression adjusted for age and BMI, Amlodipine 5 mg vs Terazosin 2 mg, 4 weeks
[9] = multiple regression, crude, Amlodipine 5 mg vs Terazosin 2 mg, 4 weeks

## CCOC(=O)C1=C(COCCN)NC(C)=C(C(=O)OC)C1c1ccccc1Cl (stereo not drawn) [Amlodipine]
Rats with BPH; [3]
  Interval of micturition: 734.8 ± 210.5 s
  Peak value of micturition pressure: 37.5 ± 7.0 mmHg
  Point pressure of micturition: 33.4 ± 3.3 mmHg
  Qave. (average urinary flow rate): 3.7 ± 1.2 mL/s
  Time of micturition: 8.9 ± 1.6 s
Rats with BPH; [4]
  Interval of micturition: 762.3 ± 274.8 s
  Peak value of micturition pressure: 30.5 ± 5.5 mmHg
  Point pressure of micturition: 30.6 ± 3.9 mmHg
  Qave. (average urinary flow rate): 4.0 ± 1.9 mL/s
  Time of micturition: 8.4 ± 1.8 s
[1]; [5]
  BOO (obstructive symptoms score): 9.1 ± 4.2
  DBP: 88.6 ± 8.9 mmHg
  OAB (irritative symptoms score): 7.3 ± 3.3
  Qave: 8.9 ± 4.1 mL/s
  Qmax: 17.3 ± 6.7 mL/s
  SBP: 155.4 ± 16.1 mmHg
[1]; [6]
  BOO (obstructive symptoms score): 5.8 ± 4.6
  DBP: 82.0 ± 8.9 mmHg
  IPSS: 11.1 ± 6.7
  OAB (irritative symptoms score): 5.5 ± 3.2
  Qave: 8.8 ± 3.8 mL/s
  Qmax: 17.7 ± 6.9 mL/s
  SBP: 140.9 ± 15.4 mmHg
[1]; [7]
  Percentage of improvement at Week 4: BOO: 33.3 ± 53.2 %
  Percentage of improvement at Week 4: DBP: 7.2 ± 7.1 % and 7.22 ± 7.09%
  Percentage of improvement at Week 4: IPSS: 30.2 ± 39.7 % and 30.17 ± 39.7%
  Percentage of improvement at Week 4: OAB: 17.3 ± 49.3 %
  Percentage of improvement at Week 4: Qave: 5.0 ± 35.2% and 5.04 ± 35.25%
  Percentage of improvement at Week 4: Qmax: 7.1 ± 41.1% and 7.09 ± 41.10%
  Percentage of improvement at Week 4: SBP: 8.9 ± 9.6 % and 8.89 ± 9.61%
[1]; [8]
  Percentage of improvement, (2)-(1) Amlodipine minus Terazosin, β Adjust: BOO: 0.3
  Percentage of improvement, (2)-(1) Amlodipine minus Terazosin, β Adjust: DBF: 5.1
  Percentage of improvement, (2)-(1) Amlodipine minus Terazosin, β Adjust: IPSS: 1.4
  Percentage of improvement, (2)-(1) Amlodipine minus Terazosin, β Adjust: OAB: 8.6
  Percentage of improvement, (2)-(1) Amlodipine minus Terazosin, β Adjust: Qave: −8.4
  Percentage of improvement, (2)-(1) Amlodipine minus Terazosin, β Adjust: Qmax: −5.0
  Percentage of improvement, (2)-(1) Amlodipine minus Terazosin, β Adjust: SBP: 5.7
[1]; [9]
  Percentage of improvement, (2)-(1) Amlodipine minus Terazosin, β Crude: BOO: 1.1
  Percentage of improvement, (2)-(1) Amlodipine minus Terazosin, β Crude: DBF: 4.9
  Percentage of improvement, (2)-(1) Amlodipine minus Terazosin, β Crude: IPSS: 2.0
  Percentage of improvement, (2)-(1) Amlodipine minus Terazosin, β Crude: OAB: 9.6
  Percentage of improvement, (2)-(1) Amlodipine minus Terazosin, β Crude: Qave: −8.7
  Percentage of improvement, (2)-(1) Amlodipine minus Terazosin, β Crude: Qmax: −5.7
  Percentage of improvement, (2)-(1) Amlodipine minus Terazosin, β Crude: SBP: 5.6
[2]
  Interval of micturition: 786.0 ± 237.5 s
  Peak value of micturition pressure: 31.8 ± 7.3 mmHg
  Point pressure of micturition: 31.4 ± 3.6 mmHg
  Qave. (average urinary flow rate): 4.4 ± 1.6 mL/s
  Time of micturition: 8.0 ± 1.1 s

## COc1cc2nc(N3CCN(C(=O)C4CCCO4)CC3)nc(N)c2cc1OC (stereo not drawn) [Terazosin]
[1]; [7]
  indices improved between week 0 and week 4: remarkable improvement in IPSS, BOO-related score, maximum urinary flow rate (Qmax) and Qave, and a decrease in systolic blood pressure
  indices without improvement between week 0 and week 4: no improvement in OAB-related score and diastolic blood pressure
  Percentage of improvement at Week 4: BOO: 32.2 ± 63.5 %
  Percentage of improvement at Week 4: DBP: 2.3 ± 10.1% and 2.31 ± 10.12%
  Percentage of improvement at Week 4: IPSS: 28.1 ± 40.5 % and 28.15 ± 40.5%
  Percentage of improvement at Week 4: OAB: 7.7 ± 54.8%
  Percentage of improvement at Week 4: Qave: 13.8 ± 25.9 % and 13.77 ± 25.86%
  Percentage of improvement at Week 4: Qmax: 12.8 ± 30.5 % and 12.8 ± 30.47%
  Percentage of improvement at Week 4: SBP: 3.3 ± 11.9 % and 3.28 ± 11.92%
[1]; [5]
  BOO (obstructive symptoms score): 6.6 ± 3.5
  DBP: 86.6 ± 9.0 mmHg
  IPSS: 13.2 ± 4.4
  OAB (irritative symptoms score): 6.6 ± 3.0
  Qave: 8.9 ± 3.9 mL/s
  Qmax: 17.7 ± 7.0 mL/s
  SBP: 152.8 ± 15.9 mmHg
[1]; [6]
  BOO (obstructive symptoms score): 4.2 ± 4.3
  DBP: 84.5 ± 11.4 mmHg
  IPSS: 9.4 ± 5.9
  OAB (irritative symptoms score): 5.3 ± 2.8
  Qave: 9.9 ± 4.2 mL/s
  Qmax: 19.4 ± 7.4 mL/s
  SBP: 147.0 ± 17.8 mmHg
